# Patent publication EP3269373A1, “LOW-DOSED ORAL DOSAGE FORM OF AN AKR1C3 INHIBITOR FOR TREATMENT OF DISEASES” (Bayer Pharma Aktiengesellschaft, priority 2016, dated 2018)
# What was measured:
# [1] = Single dose study in healthy postmenopausal women (safety, plasma bilirubin); type: in vivo
# Protocol: Single center, randomized, placebo-controlled, double-blind and parallel group study. For the 30 mg group only, a one sequence cross-over design was applied to estimate the relative bioavailability of a liquid versus a solid formulation.
# In this study the AKR1C3 inhibitor was administered as a single oral dose. Eight volunteers per treatment group were included. Two volunteers per treatment group were allocated to placebo in a randomized, double-blind fashion in order to assess non-drug related factors in the safety evaluation. To ensure that 8 subjects were treated, during the pre-dose phase at least 1 backup subject had to undergo all necessary measurements to compensate for the risk that a person had to be excluded immediately before dosing due to safety concerns.
# Forty-six (46, 76.7%) out of 60 treated subjects were treated with the AKR1C3 inhibitor (6 subjects per group at dose levels 1 mg, 3 mg, 10 mg, 30 mg, 120 mg, 240 mg; 5 subjects per group at 60 mg and 90 mg) and 14 subjects (23.3%) received placebo (2 subjects each in the 1 mg, 3 mg, 30 mg, 60 mg, 120 mg and 240 mg groups, and 1 subject each in the 10 mg and 90 mg groups). All 60 treated subjects (100%) completed the study and were included in the statistical analyses of safety (SAF: N=60). One out of 60 treated subjects was not valid for the analysis of pharmacodynamics due to vomiting before two times tmax (PDS: N=59). This same subject was also excluded from the PK analysis of the 46 verum-treated subjects, and all 14 placebo-treated subjects were not valid for the analysis of PK (PKS: N=45).
# Bilirubin was measured employing a standard laboratory kit.
# [2] = Multiple dose study Part B in healthy premenopausal tubal-ligated women, 28 days (safety, plasma bilirubin); type: in vivo; conditions: for Plasma bilirubin concentrations above the upper limit of normal (subjects): tablets
# Protocol: Plasma bilirubin levels were assessed prior to dosing and 1, 2, 6 and 14 days after drug administration. […] 30 mg (once daily), 90 mg (once daily) or 60 mg (twice daily) per 70 kg body weight for women of the AKR1C3 inhibitor over 14 days. Plasma bilirubin levels were assessed prior to dosing and 1, 2, 6, 10, 13, 15, 19 days after drug administration and at final examination. […] Plasma bilirubin levels were assessed prior to dosing and on cycle days 8, 12, 15, 22, 29, 33 after start of drug administration and at the follow up examinations.
# The study was performed as an ascending dose study after multiple oral doses of the AKR1C3 inhibitor or placebo in 27 healthy postmenopausal (PM) women, aged 45 to 68 years (Part A) and 18 healthy tubal-ligated (TL) women, aged 18 to 48 (Part B).
# The study consists of two parts: Part A was performed in healthy postmenopausal women (randomized within each dose level and placebo-controlled), Part B in healthy premenopausal women with tubal-ligation (open label; intraindividual comparison to pre-treatment cycle) with 28 days treatment (i.e. approx. one menstrual cycle). The safety of 30 mg once daily, 90 mg once daily, 60 mg twice/day of the AKR1C3 inhibitor given over 14 days was assessed in postmenopausal women prior to exposing premenopausal women to the corresponding doses of 60 mg once daily, 60 mg twice/day over 28 days. • Part A and Part B were further divided into different periods: • Part A: screening, pre-dose, treatment period 1 with single dose administration, treatment period 2 with multiple dose administration on 14 consecutive days and follow-up. […] Three increasing dosages of the AKR1C3 inhibitor were tested: 30 mg once daily, 90 mg once daily and 60 mg twice daily. In addition, a lower dose 3 mg once daily was evaluated. Nine volunteers per dose level were included into the study; thereof, n = 7 women were randomly assigned to treatment with the respective dose and n = 2 to placebo treatment. The study drug was administered in a double-blind manner within one dose level, i.e. all volunteers of that dose level received the same number of tablets identical in appearance. • Part B: screening, pre-dose (pre-treatment cycle), treatment period with multiple dose administration on 28 consecutive days and follow-up.
# [3] = Embryonic (embryo-fetal) development study in rats; type: in vivo; conditions: for NOAEL: female, rat, in vivo, po, pregnant rats, oral gavage once daily, Day 6 to Day 17 of gestation
# Protocol: The NOAEL for developmental toxicity in rats is consequently the mid dose of 17 mg/kg.
# The control received the vehicle in the same manner. All F0-females were sacrificed on Day 21 of gestation and the following parameters were recorded after removal and examination of the ovaries and the uteri: Number of corpora lutea, number and state of implantation sites (i.e, live foetus, early and late interauterine deaths, dead fetuses). […] Dead fetuses were classified as those which appeared to have died shortly before necropsy. Live foetuses were euthanised by a subcutaneous injection of sodium pentobarbitone. Individual foetal and placental weights were recorded and foetuses were examined for external abnormalities and sexed by external observation. Afterwards, approximately one half of the foetuses in each litter were examined for visceral abnormalities by microdissection. They were then eviscerated and the carcasses processed and Alizarin Red S stained for skeletal examination. The remaining foetuses were fixed in Bouin's fluid and examined for visceral abnormalities by the Wilson sectioning method. Foetal abnormalities were classified as malformations (rare and/or potentially lethal defects) and variations (commonly occurring non-lethal abnormalities).
# [4] = Embryonic (embryo-fetal) development study in rabbits; type: in vivo; conditions: for NOAEL: female, po, pregnant rabbits, oral gavage once daily, Day 6 to Day 19 of gestation
# Protocol: However, the incidence of some foetal structural variations (= mild foetal structural abnormalities) was increased at the mid dose of 20 mg/kg and higher. […] Table 2: Preclinical safety margins
# The control received the vehicle in the same manner. All F0-females were sacrificed on Day 29 of gestation and the following parameters were recorded after removal and examination of the ovaries and the uteri: Number of corpora lutea, number and state of implantation sites (i.e, live foetus, early and late interauterine deaths, dead fetuses). […] Dead fetuses were classified as those which appeared to have died shortly before necropsy. Live foetuses were euthanised by an intraperitoneal injection of sodium pentobarbitone. Individual foetal and placental weights were recorded and foetuses were examined for external abnormalities and sexed by external observation. All fetuses in each litter were examined for visceral abnormalities by microdissection, eviscerated and the carcasses processed and Alizarin Red S stained for skeletal examination. The intact heads of approximately one half of the fetuses in each litter were removed after the fetuses were killed and were processed in Bouin's fluid. The heads were then examined by the Wilson sectioning method. Foetal abnormalities were classified as malformations (rare and/or potentially lethal defects) and variations (commonly occurring non-lethal abnormalities). […] These variations were related to sternebra. […] This finding was not present in the background data. […] Thus, in summary, the NOAEL for maternal toxicity is considered to be 70 mg/kg. The NOAEL for developmental toxicity is regarded as 5 mg/kg due to the occurrence of foetal findings classified as variations at the dose of 20 mg/kg and higher.
# [5] = cited from earlier work
# [6] = target: T1, AKR1C3 (Homo sapiens, UniProt P42330); conditions: as disclosed in WO 2013045407; cited from earlier work
# T1 sequence (P42330 1-323): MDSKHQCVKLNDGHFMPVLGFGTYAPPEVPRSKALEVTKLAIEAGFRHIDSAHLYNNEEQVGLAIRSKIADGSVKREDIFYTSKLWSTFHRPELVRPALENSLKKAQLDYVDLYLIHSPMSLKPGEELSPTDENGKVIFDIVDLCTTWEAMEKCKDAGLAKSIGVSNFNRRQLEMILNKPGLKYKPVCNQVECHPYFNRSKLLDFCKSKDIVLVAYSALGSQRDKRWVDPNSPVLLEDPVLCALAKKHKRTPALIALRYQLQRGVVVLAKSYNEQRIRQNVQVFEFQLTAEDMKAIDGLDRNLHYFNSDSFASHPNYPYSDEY
# [7] = Multiple dose study Part A in healthy postmenopausal women, 14 days (safety, plasma bilirubin); conditions: for Plasma bilirubin concentrations above the upper limit of normal (subjects): tablets
# [8] = Risk assessment on reproductive and developmental toxicities (exposure ratios animal:human) combined with clinical studies
smiles,measurement,setting,value
"CN(CCC(=O)O)C(=O)c1ccc2c(c1)CC[C@@H]1[C@@H]2CC[C@]2(C)C(c3cncc(F)c3)=CC[C@@H]12 [AKR1C3 inhibitor, N-{[17-(5-Fluoropyridin-3-yl)estra-1,3,5(10),16-tetraen-3-yl]carbonyl}-N-methyl-β-alanine]",drug-related TEAE headache,"[1]; female, human, in vivo",21.7%
same,drug-related TEAE nausea,"[1]; female, human, in vivo",15.2%
same,drug-related TEAE vomiting,"[1]; female, human, in vivo",13.0%
same,Serious treatment-emergent adverse events (TEAEs),[1]; in vivo,not reported
same,indication for hemolysis,[1]; in vivo,no indication for hemolysis
same,signs of drug-induced liver injury (DILI),[1]; in vivo,no signs of drug-induced liver injury (DILI) have been detected
same,maximum tolerated dose,[1]; single dose,120 mg
same,well tolerated up to a single dose,[1]; single oral dose,≤ 120 mg
same,Plasma bilirubin concentrations above the upper limit of normal (subjects),[2]; 60 mg once daily over 28 days,1 of 9
same,changes in plasma bilirubin,"[2]; 60 mg once daily, premenopausal women, 4 weeks of treatment",increases in plasma bilirubin were observed in a small fraction of subjects
same,Plasma bilirubin concentrations above the upper limit of normal (subjects),[2]; 60 mg twice daily over 28 days,2 of 9
same,changes in plasma bilirubin,"[2]; 60 mg twice daily, 28 days",increase in plasma bilirubin was observed in a significant fraction of subjects
same,incidence of fetal visceral and skeletal variations,"[3]; 60 mg/kg, compared to the concurrent or historical control",higher incidence
same,NOAEL,"[3]; doses 0, 5, 17, 60 mg/kg, read-out: NOAEL for dev. toxicity",17 mg/kg
same,NOAEL,[3]; read-out: NOAEL for maternal toxicity,60 mg/kg
same,incidence of malformations,"[3]; high dose 60 mg/kg, from eight dams, out of a total of 198 foetuses (control 1 foetus out of 211)",12 foetuses
same,higher systemic exposure (AUCunbound) at NOAEL than expected clinical exposure,[3]; rats at 17 mg/kg vs once daily 3 mg/day in humans,~122 fold
same,higher systemic exposure (AUCunbound) at NOAEL than expected clinical exposure,[3]; rats at 17 mg/kg vs once daily 30 mg/day in humans,~15 fold
same,higher systemic exposure (AUCunbound) at NOAEL than expected clinical exposure,[3]; rats at 17 mg/kg vs twice daily 60 mg/day in humans,approximately 2 fold
same,NOAEL,"[4]; rabbit, in vivo, doses 0, 5, 20, 70 mg/kg, read-out: NOAEL for dev. toxicity",5 mg/kg
same,NOAEL,"[4]; rabbit, in vivo, read-out: NOAEL for maternal toxicity",70 mg/kg
same,occurrence of sternebra with increased ossification,"[4]; rabbit, in vivo, 5 mg/kg",very low incidence
same,incidence of some foetal structural variations,"[4]; rabbit, in vivo, 20 mg/kg",increased
same,incidence of a discoloured thymus in fetuses,"[4]; rabbit, in vivo, 70 mg/kg",slightly higher incidence
same,higher systemic exposure (AUCunbound) at NOAEL than expected clinical exposure,[4]; rabbits at 5 mg/kg vs once daily 3 mg/day in humans,~17 fold
same,higher systemic exposure (AUCunbound) at NOAEL than expected clinical exposure,[4]; rabbits at 5 mg/kg vs twice daily 60 mg/day in humans,approximately 0.3 fold
same,lesion load,"[5]; 0.2 mg/kg and 0.8 mg/kg, given daily, compared to the vehicle group",reduction in lesion load
same,lesions on the bladder and on/in the uterus,"[5]; 30 mg/kg daily, compared with the vehicle group (WO 2013045407)",hardly any lesions could be found
same,AKR1C3 inhibition,[6],potent
same,Plasma bilirubin concentrations above the upper limit of normal (subjects),[7]; 60 mg twice daily over 14 days,5 of 7
same,changes in plasma bilirubin,"[7]; 60 mg twice daily, 14 days",increase in plasma bilirubin was observed in a significant fraction of subjects
same,Plasma bilirubin concentrations above the upper limit of normal (subjects),[7]; 90 mg once daily over 14 days,1 of 7
same,changes in plasma bilirubin,"[7]; 90 mg once daily, postmenopausal women, 2 weeks of treatment",increases in plasma bilirubin were observed in a small fraction of subjects
same,well tolerated up to a dose,"[7]; multiple dosing, women",≤ 60 mg twice daily
same,changes in plasma bilirubin,"[7]; up to 30 mg once daily / 70 kg body weight, single and repeat dosing up to 14 days",no changes in plasma bilirubin were observed
same,dose of decreased concern for reproductive or developmental toxicity in humans,[8],≤ 3 mg daily dose
same,dose of increased concern for reproductive or developmental toxicity in humans,[8],> 15 mg daily dose
